According to publication PMC9225715, “Development of PD3 and PD3-B for PDEδ inhibition to modulate KRAS activity” (Journal of Enzyme Inhibition and Medicinal Chemistry, 2022):
Like-named read-outs stand apart in the source and are kept apart here.

Columns and labels:
[1] = molecular target: T1, PDEδ (Homo sapiens, UniProt O43924); assay: Fluorescence measurement after incubation with recombinant PDEδ; type: binding; settings: 2 µM PD + 2 µM PDEδ, 20 mM Tris buffer pH 7.5, Ex 280 nm
T1 construct: made in house; host or cells: E. coli BL21(DE3)
Description: With the structural rationale for the binding to PDEδ from the molecular docking studies, we measured the fluorescence responses of the PDs after incubation with recombinant PDEδ proteins to confirm the binding of PDs to PDEδ. We envisioned that the hydrophobic environment of the prenyl binding pocket of PDEδ, as depicted in Figure 1(C), could enhance the fluorescent signal due to the solvatochromic characteristics of IQ scaffold. In addition, tryptophan residues near the binding site of PDEδ and the fluorophore of PDs could act as a fluorescence resonance energy transfer (FRET) pair. […] All recoded spectra of PDs are depicted in Supplemental Figure S1. To compare the binding abilities of PD derivatives to the target protein, same concentration (2 µM) of PD compound was treated and then fluorescence intensity was measured in Spectrofluorometer FP-6500.
The fluorescence changes were measured to determine the interaction between PD compounds and PDEδ protein. The fluorescence spectra were obtained under Tris buffer [20 mM Tris-HCl (pH 7.5), 100 mM NaCl] at 20 °C. The concentration of PDEδ was 2 µM. After the addition of 2 µM PD compound, the mixture was gently inverted 3 times and then incubated for 1 min. The emission spectra were recorded on Spectrofluorometer FP-6500 (JASCO, Tokyo, Japan) at Ex 280 nm. The band width was 3 nm for excitation and 5 nm for emission.

[2] = molecular target: T1, PDEδ; assay: FP-based competition binding assay using excess deltarasin
Description: (§1) Figure 3. Binding affinities of PDs measured by fluorescence polarisation. (A) Representative binding curve of PDs (PD3) titrated with PDEδ. The FP value was measured in PBS buffer (pH 7.2) containing 8 concentrations (0, 0.5, 1, 2, 4, 8, 16 and 32 μM) of PDEδ mixed with 0.5 μM PDs. Ex: 440 nm, Em: 526 nm; (B) Kd value and half-life of each compound; (C, D) Kinetic trace of PD3 and PD7 in the competition assay. PD3 was shown as a compound with the longest retention time (slow dissociation), whereas PD7 was shown as a compound with the shortest retention time (fast dissociation). The half-life was obtained by a competition binding assay using excess deltarasin. The optimal concentration of PDEδ for the competition assay was determined using the Kd value and PD concentration (0.5 μM) for making more than 68% of the binding complex. Ex: 430 nm, Em: 520 nm. TEXT PRINTED IN THE PICTURE: (A) PD3: Best-fit values Bmax: 261.7; Best-fit values Kd: 0.4991; Std. Error Bmax: 17.98; Std. […] Error Bmax 17.98 (last digit 8 or 6) and Std. Error Kd 0.1956 (5 and 6 not certain) / Panels C and D: k and half-life are printed without a label of their own; assigned to PD3 and PD7 from the panel legends (PDEδ+PD3+Del, PDEδ+PD7+Del)
To confirm that the PD compound occupies the same farnesylation binding site as deltarasin in PDEδ and to exclude the possibility that the FP signal resulted from non-specific hydrophobic interactions, we carried out a FP-based competition assay. PDs (0.5 µM) were incubated with the purified PDEδ protein for 2 h to ensure complete binding between the compound and the protein. Then, deltarasin was added to replace the PD compound in the prenyl binding pocket of PDEδ, which decreased the FP due to the free rotation of the released PD compound. As shown in Figure 3(B), the reverse correlation between Kd values and half-lives was observed (Figure 3(B) and Table 1). […] The rate constants and half-lives were measured only when the increased concentration of deltarasin produced concentration-independent kinetic parameters, which reflects complete displacement of the binding site with the deltarasin. The kinetic trace was fit to a single exponential decay to generate the dissociation rate constant and half-life. Given that the Kd value is a ratio of koff/kon in a simple bimolecular binding model, the measured half-life and Kd are not always matched due to the contribution from the association rate constant. Figure 3(C) (PD3) and 3 D (PD7) show a representative kinetic trace obtained in the competition assay.
Deltarasin, a well-known PDEδ inhibitor, was purchased from Chemietek (Indianapolis, IN) for the competition assay. Assay buffer and the plate were the same as used in fluorescence polarisation assay. The optimal concentration of PDEδ was determined based on the Kd values and ligand concentration (0.5 µM) to ensure the formation of ligand-protein complex. The mixture of PDEδ and compounds were incubated for 2 h at 4 °C. After adding deltarasin to the mixture, FP was immediately recorded by SpectraMax M5 microplate reader (Molecular Devices, San Jose, CA) with excitation at 430 nm and emission at 520 nm. In SpectraMax M5 microplate reader, single excitation and emission wavelengths need to be used for testing all compounds. Therefore, Ex 430/Em 520 was used for competition binding assay. The selected ex/em wavelengths have only a difference of less than 10 nm from the maximum wavelengths, and there was no critical issue for conducting assay. The kinetic trace was fit to a single exponential decay to generate dissociation rate constant and half-life.

[3] = molecular target: T1, PDEδ; assay: Fluorescence polarisation (FP)-based binding assay
Description: To evaluate the binding affinities of PDs to PDEδ, we also carried out a fluorescence polarisation (FP)-based binding assay after incubation of PDs with PDEδ. […] In the presence of 0.5 µM PD compounds, the polarisation value (mP value) increased following treatment with purified PDEδ in a dose-dependent manner until treatment with excess PDEδ induced saturation of binding. Among the tested compounds, 8 compounds were selected for further evaluation and SAR analysis. The binding curves for the selected 8 compounds are shown with their Kd values in Supplemental Figure S3.
as §1
PDEδ was diluted to make a series of two-fold dilutions with a starting concentration of 32 µM. The diluted solution was mixed with PBS buffer [137 mM NaCl, 2.7 mM KCl, 10 mM Na2HPO4, 2 mM KH2PO4 (pH 7.2)] and then the mixture was loaded on a 96 well black plate (SPL life Science, Gyeonggi-do, Republic of Korea). Compounds were transferred to the wells of assay plate and the final concentration of compounds was fixed to 0.5 µM. After the addition of the compound, the assay plates were incubated for 2 h at 4 °C. FP values were detected by SpectraMax M5 microplate reader (Molecular Devices, San Jose, CA) at the maximum absorption and emission wavelengths of PD compounds in assay buffer. Kd values were determined by previously reported method.

Half-life ([2]; representative kinetic trace, single exponential decay): 45 min
koff ([2]; representative kinetic trace, single exponential decay, read-out: dissociation rate constant k (converted)): 0.00025 s⁻¹
Half-life ([2]; retention in PDEδ on displacement by excess deltarasin, 0.5 µM PD, mean ± SD of three independent experiments): 41 ± 6 min
Kd ([3]; 0.5 µM PD titrated with PDEδ, PBS pH 7.2, mean ± SD of three independent experiments, read-out: Kd value): 491 ± 12 nM
Kd ([3]; representative binding curve, Figure 3(A) inset, read-out: Best-fit values Kd): 499 nM
SMILES: Cc1ccc(-c2nc3ccccc3c3cc4ccccn4c23)cc1 [PD3, 6-(p-tolyl)indolizino[3,2-c]quinoline]
Fluorescence response upon incubation with PDEδ [1]: exceeded the maximum detection limit of Spectrofluorometer
